The source of these data is US8633183B2 (priority 2010, dated 2014).

For this assay, the target named is PI3Kalpha (Homo sapiens (Human), UniProt P42336). Conditions: read-out: IC50 PI3K.
Sequence of PI3Kalpha (P42336 whole entry, looked up): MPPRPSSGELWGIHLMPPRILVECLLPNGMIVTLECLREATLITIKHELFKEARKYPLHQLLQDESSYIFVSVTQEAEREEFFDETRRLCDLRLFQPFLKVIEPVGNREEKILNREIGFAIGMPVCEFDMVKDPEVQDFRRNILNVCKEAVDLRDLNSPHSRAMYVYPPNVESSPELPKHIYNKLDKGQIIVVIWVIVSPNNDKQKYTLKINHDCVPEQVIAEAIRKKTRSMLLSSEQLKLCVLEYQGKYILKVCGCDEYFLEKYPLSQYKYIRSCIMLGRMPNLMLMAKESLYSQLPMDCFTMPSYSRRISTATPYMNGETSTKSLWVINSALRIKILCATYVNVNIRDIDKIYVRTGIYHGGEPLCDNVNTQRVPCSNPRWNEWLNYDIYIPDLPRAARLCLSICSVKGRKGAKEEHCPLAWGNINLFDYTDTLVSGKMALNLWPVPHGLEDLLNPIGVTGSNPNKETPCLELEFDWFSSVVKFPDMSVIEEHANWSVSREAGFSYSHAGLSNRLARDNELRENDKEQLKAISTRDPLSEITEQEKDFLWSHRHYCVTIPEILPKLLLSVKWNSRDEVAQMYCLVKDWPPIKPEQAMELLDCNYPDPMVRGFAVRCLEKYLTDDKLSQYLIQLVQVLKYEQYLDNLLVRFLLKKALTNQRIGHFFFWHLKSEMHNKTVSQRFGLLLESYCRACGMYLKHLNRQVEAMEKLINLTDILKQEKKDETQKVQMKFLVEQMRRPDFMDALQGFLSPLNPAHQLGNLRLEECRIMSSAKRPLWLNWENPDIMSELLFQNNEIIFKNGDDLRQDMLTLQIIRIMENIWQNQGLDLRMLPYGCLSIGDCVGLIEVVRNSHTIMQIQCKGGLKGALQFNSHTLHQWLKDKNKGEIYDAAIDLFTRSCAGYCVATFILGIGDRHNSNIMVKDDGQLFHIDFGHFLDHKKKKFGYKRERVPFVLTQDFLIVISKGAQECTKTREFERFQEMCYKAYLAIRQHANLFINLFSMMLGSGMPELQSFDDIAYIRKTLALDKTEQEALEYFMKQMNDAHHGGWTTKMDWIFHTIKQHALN
A word on the IC50: it is the concentration that inhibits the measured activity by half. As for `CCc1ncnc(-c2cc(F)c(C(=O)N3CCN(CC(C)(C)O)CC3)c(F)c2)c1C#Cc1ccc(NC)nc1` [Example E-212], the IC50 was 645 nM.
As to `CCc1ncnc(-c2cc(Cl)c(C(=O)N3CCN(CC(C)(C)O)CC3)c(Cl)c2)c1C#Cc1ccc(N)nc1` [Example E-199], the IC50 amounted to 74.6 nM.
Under `CCNc1ccc(C#Cc2c(CC)ncnc2-c2ccc(C(=O)N3CCC4(CC3)CN(C(=O)OC(C)(C)C)C4)c(F)c2)cn1` [Example E-266] stands 560 nM; under `CCc1ncnc(-c2ccc(C(=O)N(C)CCOC)c(Cl)c2)c1C#Cc1ccc(N)nc1` [Example D-35], 63 nM.
For `CCc1ncnc(-c2ccc(C(=O)N(C)C3CCS(=O)(=O)C3)c(C)c2)c1C#Cc1ccc(N)nc1` (stereo not shown) [Example E-105] the value was 51.7 nM; for `CCc1ncnc(-c2ccc(C(=O)N3CCCO3)c(F)c2)c1C#Cc1ccc(N)nc1` [Example D-218], 80 nM; for `CCc1ncnc(-c2ccc(C(=O)N3CCC4(CCN(C(=O)OC(C)(C)C)CC4)C3)c(F)c2)c1C#Cc1ccc(N)nc1` [Example E-327], 1360 nM.
For `CCOC(=O)N1CCN(C(=O)c2ccc(-c3ncnc(CC)c3C#Cc3ccc(N)nc3)cc2OC)CC1` [Example E-62] the value was 246 nM; for `CCc1ncnc(-c2ccc(C(=O)N3CCN(CC)CC3)c(C(F)(F)F)c2)c1C#Cc1ccc(N)nc1` [Example E-231], 185 nM.
On to `CCc1ncnc(-c2cc(F)c(C(=O)N3CCC(C(C)O)CC3)c(Cl)c2)c1C#Cc1ccc(N)nc1` (stereo not shown) [Example E-241], for which the IC50 came out at 91.5 nM.
As to `CCc1ncnc(-c2ccc(C(=O)N3CCC(C(F)(F)F)CC3)c(F)c2)c1C#Cc1ccc(N)nc1C` [Example D-14], the IC50 came out at 647 nM.
For `CCc1ncnc(-c2ccc(C(=O)N3CCN(CC4CCCCC4)CC3)c(F)c2)c1C#Cc1ccc(N)nc1` [Example D-94] the value was 1820 nM.
Consider `Cc1ccc(-c2ncnc(C)c2C#Cc2ccc(N)nc2)cn1` [Example C-24], for which the IC50 was 59 nM.
For the compound `CCc1ncnc(-c2ccc(F)c(C(=O)N(C)C)c2)c1C#Cc1ccc(N)nc1` [Example C-15], the IC50 worked out at 189 nM.
In the case of `CCNc1ccc(C#Cc2c(CC)ncnc2-c2ccc(C(=O)N3CCn4cnnc4C3)c(F)c2)cn1` [Example E-261], the IC50 is 44.3 nM.
With `CCc1ncnc(-c2ccc(C(=O)N3CCN(C4COC4)CC3)c(F)c2)c1C#Cc1ccc(N)nc1` [Example E-271], the IC50 came to 113 nM.
Under `CCc1ncnc(-c2ccc(C(=O)N3CC(O)CO3)cc2)c1C#Cc1ccc(N)nc1` [Example D-224] stands 39 nM.
For `CCc1ncnc(-c2ccc(C(=O)N3CCC(N4CCN(C)CC4)CC3)c(Cl)c2)c1C#Cc1ccc(NC)nc1` [Example E-192], the IC50 is 334 nM.
Consider `CCc1ncnc(-c2ccc(C(=O)N3CCN(CCN(C)C)CC3)c(F)c2)c1C#Cc1ccc(N)nc1` [Example D-99], for which the IC50 worked out at 452 nM.
For `CCc1ncnc(-c2ccc(C(=O)N3CCN(C(C)C)CC3)c(C(F)(F)F)c2)c1C#Cc1ccc(N)nc1` [Example E-230] the value was 279 nM; for `CCc1ncnc(-c2ccc(N3CCOCC3)nc2)c1C#Cc1ccc(N)nc1` [Example C-32], 32 nM.
Take `CCc1ncnc(-c2ccc(C(=O)N3C[C@@H]4CCN(C(=O)OC(C)(C)C)[C@@H]4C3)c(F)c2)c1C#Cc1ccc(N)nc1` [Example E-331]: the IC50 worked out at 151 nM.
`CCc1ncnc(-c2cc(F)c(C(=O)N3CCC4(CC3)CN(C)C4)c(F)c2)c1C#Cc1ccc(N)nc1` [Example E-336]: the IC50 is 773 nM.
For `CCc1ncnc(-c2ccc(C(=O)N3CC4(CNC4)C3)c(Cl)c2)c1C#Cc1ccc(N)nc1` [Example E-270] the value was 328 nM.
For the compound `CCc1ncnc(-c2cc(F)c(C(=O)N3CCN(C)CC3)c(F)c2)c1C#Cc1ccc(NC)nc1` [Example E-210], the IC50 came to 388 nM.
Under `CCc1ncnc(-c2ccc(C(=O)N3CCC(N4CCCCC4)CC3)c(C)c2)c1C#Cc1ccc(N)nc1` [Example E-109] stands 259 nM; under `CCc1ncnc(-c2ccc(C(=O)N3CCC4(CCN(C)CC4)CC3)c(C)c2)c1C#Cc1ccc(N)nc1` [Example E-97], 367 nM; under `CCc1ncnc(-c2ccc(C(=O)N3CCN(C4CCOCC4)CC3)c(F)c2)c1C#Cc1ccc(N)nc1` [Example D-84], 127 nM.
For `CCc1ncnc(-c2ccc(C(=O)N3CCN(CC4CCCCC4)CC3)c(F)c2)c1C#Cc1ccc(N)nc1C` [Example D-22] the value was 1270 nM.
For `CCc1ncnc(-c2ccc(C(=O)NC3CCCN(C)C3)c(Cl)c2)c1C#Cc1ccc(N)nc1` (stereo not shown) [Example E-22], the IC50 was determined as 510 nM.
For `CCc1ncnc(-c2ccc(C(=O)N3CCCC(O)C3)c(Cl)c2)c1C#Cc1ccc(N)nc1` [Example D-147] the value was 65 nM; for `CCc1ncnc(-c2ccccc2)c1C#Cc1ccc(N)nc1` [Example C-13], 99 nM; for `CCc1ncnc(-c2ccc(C(=O)N3CCN(C(C)C)CC3)c(F)c2)c1C#Cc1ccc(N)nc1` [Example D-122], 198 nM.
For `CCc1ncnc(-c2ccc(C(=O)N3CCN4CCCCC4C3)c(F)c2)c1C#Cc1ccc(N)nc1` [Example D-87], the IC50 was determined as 233 nM.
As to `CCc1ncnc(-c2cc(F)c(C(=O)N3CCN(C)C[C@H]3C)c(F)c2)c1C#Cc1ccc(N)nc1` [Example E-340], the IC50 turned out to be 364 nM.
`CCc1ncnc(-c2cc(C)nc(C)c2)c1C#Cc1ccc(N)nc1` [Example C-4]: the IC50 was 29 nM.
As to `CCc1ncnc(-c2ccc(C(=O)N3CCn4cnnc4C3)c(F)c2)c1C#Cc1ccc(N)nc1` [Example E-248], the IC50 is 50.8 nM.
`CCc1ncnc(-c2cc(F)c(C(=O)N3CCN(C(C)COC)CC3)c(F)c2)c1C#Cc1ccc(N)nc1` (stereo not shown) [Example E-298]: the IC50 stood at 187 nM.
For `CCc1ncnc(-c2ccc(C(=O)N(C)CCCOC)c(F)c2)c1C#Cc1ccc(N)nc1` [Example D-1] the value was 78 nM; for `CCc1ncnc(-c2ccc(C(=O)N3CCN(C(C)=O)CC3)c(F)c2)c1C#Cc1ccc(N)nc1` [Example D-90], 62 nM; for `CCc1ncnc(-c2cc(Cl)c(C(=O)N3CCN4CCC[C@H]4C3)c(Cl)c2)c1C#Cc1ccc(N)nc1` [Example E-194], 129 nM.
Under `CCc1ncnc(-c2ccc(C(=O)N3CCC(C(C)(C)O)CC3)c(F)c2)c1C#Cc1ccc(NC)nc1` [Example E-177] stands 337 nM; under `CCc1ncnc(-c2ccc(C(=O)N3CCCOCC3)c(Cl)c2)c1C#Cc1ccc(N)nc1` [Example E-39], 65.3 nM.
For `CCc1ncnc(-c2ccc(C(=O)N3CC[C@H](N(C)C)C3)c(OC)c2)c1C#Cc1ccc(N)nc1` [Example E-55] the value was 148 nM.
As for `CCc1ncnc(-c2ccc(C(=O)N3CCC4(CC3)COC4)c(F)c2)c1C#Cc1ccc(N)nc1` [Example E-164], the IC50 was 154 nM.
Under `CCc1ncnc(-c2ccc(C(=O)NCCN3CCNCC3)c(F)c2)c1C#Cc1ccc(N)nc1` [Example E-167] stands 157 nM.
For `CCc1ncnc(-c2ccc(C(=O)N3CCC(N4CCC(C)CC4)C3)c(Cl)c2)c1C#Cc1ccc(N)nc1` (stereo not shown) [Example E-76] the value was 233 nM; for `CCc1ncnc(-c2ccc(C(=O)N3CCN(C4COC4)CC3)c(F)c2)c1C#Cc1ccc(N)nc1C` [Example E-280], 153 nM.
With `CCc1ncnc(-c2ccc(C(=O)N3CC(O)CO3)c(OC)c2)c1C#Cc1ccc(N)nc1` (stereo not shown) [Example E-49], the concentration for half-maximal inhibition (IC50) amounted to 74.5 nM.
For `CCc1ncnc(-c2cc(Cl)c(C(=O)N3CCC(CO)CC3)c(Cl)c2)c1C#Cc1ccc(N)nc1` [Example E-205] the value was 48.9 nM; for `CCc1ncnc(-c2ccc(C(=O)N3CCC(C4CCN(C)CC4)CC3)c(C)c2)c1C#Cc1ccc(N)nc1` [Example E-119], 281 nM.
For `CCc1ncnc(-c2ccc(C(=O)N3CCN(CCOC)CC3)c(F)c2)c1C#Cc1ccc(N)nc1` [Example D-95] the value was 145 nM; for `CCc1ncnc(-c2ccc(C(=O)N3CCC(O)(c4ccccc4)CC3)c(F)c2)c1C#Cc1ccc(N)nc1` [Example D-126], 142 nM; for `CCc1ncnc(-c2ccc(C(=O)N3C[C@H]4CNC[C@H]4C3)c(F)c2)c1C#Cc1ccc(N)nc1` [Example E-330], 601 nM.
Turning to `CCc1ncnc(-c2cc(F)c(C(=O)N3CCN(C4CCOCC4)CC3)c(F)c2)c1C#Cc1ccc(NC)nc1` [Example E-216], the IC50 was 466 nM.
Under `CCc1ncnc(-c2ccc(C(=O)N3CCN(CC4CCCO4)CC3)c(F)c2)c1C#Cc1ccc(N)nc1` [Example D-88] stands 118 nM.
For `CCCN1CCN(C(=O)c2c(F)cc(-c3ncnc(CC)c3C#Cc3ccc(N)nc3)cc2F)CC1` [Example E-4], the IC50 was 133 nM.
`CCc1ncnc(-c2ccc(C(=O)N(C)C3CCS(=O)(=O)C3)c(F)c2)c1C#Cc1ccc(N)nc1` [Example D-216]: the IC50 was 59 nM.
For `COCCN1CCN(C(=O)c2ccc(-c3ncnc(C)c3C#Cc3ccc(N)nc3)cc2)CC1` [Example D-189] the value was 118 nM; for `CCc1ncnc(-c2cc(F)c(C(=O)N3CCN(CC4CC4)CC3)c(F)c2)c1C#Cc1ccc(N)nc1` [Example E-7], 189 nM; for `CCc1ncnc(-c2ccc(C(=O)N3CCN(CC4CC4)CC3)c(C)c2)c1C#Cc1ccc(N)nc1` [Example E-116], 110 nM.
For `CCc1ncnc(-c2ccc(C(=O)N3CCN(CCCS(C)(=O)=O)CC3)c(F)c2)c1C#Cc1ccc(N)nc1` [Example E-250] the value was 92.2 nM; for `CCc1ncnc(-c2ccc(C(=O)NCCN3CCOCC3)c(Cl)c2)c1C#Cc1ccc(N)nc1` [Example E-84], 113 nM.
Regarding `CCc1ncnc(-c2cc(F)c(C(=O)N3CCN(CCN)CC3)c(Cl)c2)c1C#Cc1ccc(N)nc1` [Example E-286], the IC50 amounted to 527 nM.
Under `CCc1ncnc(-c2ccc(C(=O)N3CCC(F)(F)CC3)c(F)c2)c1C#Cc1ccc(N)nc1` [Example E-166] stands 154 nM; under `CCc1ncnc(-c2ccc(C(=O)N3CCN(CC4CC4)CC3)c(Cl)c2)c1C#Cc1ccc(N)nc1` [Example D-136], 228 nM.
Consider `C#CCN1CCN(C(=O)c2ccc(-c3ncnc(CC)c3C#Cc3ccc(N)nc3)cc2F)CC1` [Example E-165], for which the IC50 was 178 nM.
